22 compounds from patent US20240376056A1, “PHENYL ACETAMIDE BASED IL-17A MODULATORS AND USES THEREOF” (DiCE Alpha, Inc., priority 2021, published 2024) can be followed below.

The target of the assay is T1, IL-17A/A (Homo sapiens, UniProt Q16552).
T1 construct: purchased Genscript Z03228
T1 sequence (Q16552 24-155): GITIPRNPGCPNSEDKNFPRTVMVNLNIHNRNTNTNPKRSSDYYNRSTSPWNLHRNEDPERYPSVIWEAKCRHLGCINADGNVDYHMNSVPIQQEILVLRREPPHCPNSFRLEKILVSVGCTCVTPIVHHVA
As to the kind of experiment: HEK-Blue IL-17A/A inhibition assay (SEAP reporter). Type of assay: cell-based. Conditions: HEK-Blue cells (HEK 293 expressing IL-17RA, IL-17RC, Act1); IL-17A/A stimulation; 20 hours; SEAP read at A630; 4-parameter fit. The method, boiled down:
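HEK 293 cells engineered with IL-17RA, IL-17RC and Act1 (NFκB-driven SEAP) given titrated compound (top final 10, 1 or 0.3 uM; 0.1% DMSO) just before IL-17A/A, then incubated 20 h. SEAP in media developed with Quanti-Blue, read at A630; IC50 by 4-parameter nonlinear fit.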

Structures are written as SMILES. A value given as a limit tells only on which side of the number the result lay.

Usually IC50 stands for the concentration that gives 50% inhibition. On to `CC(C)n1nccc1C(=O)N[C@H](C(=O)Nc1ccc([C@H](C)C(=O)NC(C2CCOC2)C(F)(F)F)cc1F)C(C1CC1)C1CC1` (stereo partly drawn) [Compound 67, N-[(1S)-1-(dicyclopropylmethyl)-2-[2-fluoro-4-[(1S)-1-methyl-2-oxo-2-[(2,2,2-trifluoro-1-tetrahydrofuran-3-yl-ethyl)amino]ethyl]anilino]-2-oxo-ethyl]-2-isopropyl-pyrazole-3-carboxamide], for which the IC50 was less than 100 nM. For the compound `CCn1nccc1C(=O)N[C@H](C(=O)Nc1ccc([C@H](C)C(=O)N(C)CC(F)(F)F)cc1F)C(C1CC1)C1CC1` [Compound 68, N-((S)-1,1-dicyclopropyl-3-((2-fluoro-4-((S)-1-(methyl(2,2,2-trifluoroethyl)amino)-1-oxopropan-2-yl)phenyl)amino)-3-oxopropan-2-yl)-1-ethyl-1H-pyrazole-5-carboxamide], the IC50 is less than 100 nM. `CCn1nccc1C(=O)N[C@H](C(=O)Nc1ccc([C@H](C)C(=O)N(C)CC(F)(F)F)cc1F)[C@H]1CC[C@H](C)CC1` [Compound 71, -ethyl-N-((S)-2-((2-fluoro-4-((S)-1-(methyl(2,2,2-trifluoroethyl)amino)-1-oxopropan-2-yl)phenyl)amino)-1-((1r,4S)-4-methylcyclohexyl)-2-oxoethyl)-1H-pyrazole-5-carboxamide]: the IC50 is less than 100 nM.

In the case of `CC[C@@H](c1ccc(Cl)cc1)[C@H](NC(=O)c1ccnn1CC)C(=O)Nc1ccc([C@H](C)C(=O)N(C)CC(F)(F)F)cc1F` [Compound 72, N-((2S,3S)-3-(4-chlorophenyl)-1-((2-fluoro-4-((S)-1-(methyl(2,2,2-trifluoroethyl)amino)-1-oxopropan-2-yl)phenyl)amino)-1-oxopentan-2-yl)-1-ethyl-1H-pyrazole-5-carboxamide], the IC50 was 100 to 1000 nM. The result for `CCn1nccc1C(=O)N[C@H](C(=O)Nc1ccc([C@H](C)C(=O)N(C)CC(F)(F)F)cc1F)[C@H](c1ccccc1Cl)C(C)C` [Compound 73, N-((2S,3S)-3-(2-chlorophenyl)-1-((2-fluoro-4-((S)-1-(methyl(2,2,2-trifluoroethyl)amino)-1-oxopropan-2-yl)phenyl)amino)-4-methyl-1-oxopentan-2-yl)-1-ethyl-1H-pyrazole-5-carboxamide] reads greater than 1000 nM. On to `CCn1nccc1C(=O)N[C@H](C(=O)Nc1ccc([C@H](C)C(=O)N(C)CC(F)(F)F)cc1F)C1CCC(F)(F)CC1` [Compound 74, N-((S)-1-(4,4-difluorocyclohexyl)-2-((2-fluoro-4-((S)-1-(methyl(2,2,2-trifluoroethyl)amino)-1-oxopropan-2-yl)phenyl)amino)-2-oxoethyl)-1-ethyl-1H-pyrazole-5-carboxamide], for which the IC50 was in the range of 100 to 1000 nM. The result for `CCn1nccc1C(=O)N[C@H](C(=O)Nc1ccc([C@H](C)C(=O)N(C)CC(F)(F)F)cc1F)C1CCC2(CC1)CC2` [Compound 75, 1-ethyl-N-((S)-2-((2-fluoro-4-((S)-1-(methyl(2,2,2-trifluoroethyl)amino)-1-oxopropan-2-yl)phenyl)amino)-2-oxo-1-(spiro[2.5]octan-6-yl)ethyl)-1H-pyrazole-5-carboxamide] reads 100 to 1000 nM; that for `CC(C)n1nccc1C(=O)N[C@H](C(=O)Nc1ccc([C@H](C)C(=O)N(C)CC(F)(F)F)cc1F)C(C1CC1)C1CC1` [Compound 78, N-((S)-1,1-dicyclopropyl-3-((2-fluoro-4-((S)-1-(methyl(2,2,2-trifluoroethyl)amino)-1-oxopropan-2-yl)phenyl)amino)-3-oxopropan-2-yl)-1-isopropyl-1H-pyrazole-5-carboxamide], less than 100 nM; that for `CCn1ncc(F)c1C(=O)N[C@H](C(=O)Nc1ccc([C@H](C)C(=O)N(C)CC(F)(F)F)cc1F)C(C1CC1)C1CC1` [Compound 79, N-((S)-1,1-dicyclopropyl-3-((2-fluoro-4-((S)-1-(methyl(2,2,2-trifluoroethyl)amino)-1-oxopropan-2-yl)phenyl)amino)-3-oxopropan-2-yl)-1-ethyl-4-fluoro-1H-pyrazole-5-carboxamide], 100 to 1000 nM. With `CCc1nocc1C(=O)N[C@H](C(=O)Nc1ccc([C@H](C)C(=O)N(C)CC(F)(F)F)cc1F)C(C1CC1)C1CC1` [Compound 80, N-((S)-1,1-dicyclopropyl-3-((2-fluoro-4-((S)-1-(methyl(2,2,2-trifluoroethyl)amino)-1-oxopropan-2-yl)phenyl)amino)-3-oxopropan-2-yl)-3-ethylisoxazole-4-carboxamide], the IC50 is less than 100 nM. The result for `CC(C)n1nccc1C(=O)N[C@H](C(=O)Nc1ccc([C@H](C)C(=O)NCC(F)(F)F)cc1F)C(C1CC1)C1CC1` [Compound 82, N-((S)-1,1-dicyclopropyl-3-((2-fluoro-4-((S)-1-oxo-1-((2,2,2-trifluoroethyl)amino)propan-2-yl)phenyl)amino)-3-oxopropan-2-yl)-1-isopropyl-1H-pyrazole-5-carboxamide] reads less than 100 nM; that for `CCn1ncc(F)c1C(=O)N[C@H](C(=O)Nc1ccc([C@H](C)C(=O)NCC(F)(F)F)cc1F)C(C1CC1)C1CC1` [Compound 83, N-((S)-1,1-dicyclopropyl-3-((2-fluoro-4-((S)-1-oxo-1-((2,2,2-trifluoroethyl)amino)propan-2-yl)phenyl)amino)-3-oxopropan-2-yl)-1-ethyl-4-fluoro-1H-pyrazole-5-carboxamide], greater than 1000 nM.

`CCc1nocc1C(=O)N[C@H](C(=O)Nc1ccc([C@H](C)C(=O)NCC(F)(F)F)cc1F)C(C1CC1)C1CC1` [Compound 84, N-((S)-1,1-dicyclopropyl-3-((2-fluoro-4-((S)-1-oxo-1-((2,2,2-trifluoroethyl)amino)propan-2-yl)phenyl)amino)-3-oxopropan-2-yl)-3-ethylisoxazole-4-carboxamide]: the IC50 was less than 100 nM.

For `CC[C@@H](c1ccc(F)cc1)[C@H](NC(=O)c1ccnn1CC)C(=O)Nc1ccc([C@H](C)C(=O)N(C)CC(F)(F)F)cc1F` [Compound 85, -ethyl-N-((2S,3S)-1-((2-fluoro-4-((S)-1-(methyl(2,2,2-trifluoroethyl)amino)-1-oxopropan-2-yl)phenyl)amino)-3-(4-fluorophenyl)-1-oxopentan-2-yl)-1H-pyrazole-5-carboxamide], the IC50 is 100 to 1000 nM. The result for `CCn1nccc1C(=O)N[C@H](C(=O)Nc1ccc([C@H](C)C(=O)NCC(F)(F)F)cc1F)C(C1CCC1)C1CCC1` [Compound 88, N-((S)-1,1-dicyclobutyl-3-((2-fluoro-4-((S)-1-oxo-1-((2,2,2-trifluoroethyl)amino)propan-2-yl)phenyl)amino)-3-oxopropan-2-yl)-1-ethyl-1H-pyrazole-5-carboxamide] reads 100 to 1000 nM; that for `C[C@H](C(=O)NCC(F)(F)F)c1ccc(NC(=O)[C@@H](NC(=O)c2ccnn2CCN2CCOCC2)C(C2CC2)C2CC2)c(F)c1` [Compound 89, N-((S)-1,1-dicyclopropyl-3-((2-fluoro-4-((S)-1-oxo-1-((2,2,2-trifluoroethyl)amino)propan-2-yl)phenyl)amino)-3-oxopropan-2-yl)-1-(2-morpholinoethyl)-1H-pyrazole-5-carboxamide], 100 to 1000 nM; that for `CCn1nccc1C(=O)N[C@H](C(=O)Nc1ccc([C@H](C)C(=O)N(C)CC(F)(F)F)cc1F)[C@H]1CCc2ccccc21` [Compound 90, N-((S)-1-((S)-2,3-dihydro-1H-inden-1-yl)-2-((2-fluoro-4-((S)-1-(methyl(2,2,2-trifluoroethyl)amino)-1-oxopropan-2-yl)phenyl)amino)-2-oxoethyl)-1-ethyl-1H-pyrazole-5-carboxamide], 100 to 1000 nM. The result for `CCn1nccc1C(=O)N[C@H](C(=O)Nc1ccc([C@H](C)C(=O)N(C)CC(F)(F)F)cc1F)[C@@H]1CCc2ccccc21` [Compound 91, N-((S)-1-((R)-2,3-dihydro-1H-inden-1-yl)-2-((2-fluoro-4-((S)-1-(methyl(2,2,2-trifluoroethyl)amino)-1-oxopropan-2-yl)phenyl)amino)-2-oxoethyl)-1-ethyl-1H-pyrazole-5-carboxamide] reads greater than 1000 nM; that for `C[C@H](C(=O)NCC(F)(F)F)c1ccc(NC(=O)[C@@H](NC(=O)c2ccnn2CCN2CC(F)(F)C2)C(C2CC2)C2CC2)c(F)c1` [Compound 94, N-((S)-1.1-dicyclopropyl-3-((2-fluoro-4-((S)-1-oxo-1-((2,2,2-trifluoroethyl)amino)propan-2-yl)phenyl)amino)-3-oxopropan-2-yl)-1-(2-(3,3-difluoroazetidin-1-yl)ethyl)-1H-pyrazole-5-carboxamide], 100 to 1000 nM. The result for `C[C@H](C(=O)NCC(F)(F)F)c1ccc(NC(=O)[C@@H](NC(=O)c2ccnn2CCn2ccnc2)C(C2CC2)C2CC2)c(F)c1` [Compound 95, -(2-(1H-imidazol-1-yl)ethyl)-N-((S)-1,1-dicyclopropyl-3-((2-fluoro-4-((S)-1-oxo-1-((2,2,2-trifluoroethyl)amino)propan-2-yl)phenyl)amino)-3-oxopropan-2-yl)-1H-pyrazole-5-carboxamide] reads 100 to 1000 nM; that for `CC(C)n1nccc1C(=O)N[C@H](C(=O)Nc1ccc([C@H](C)C(=O)NCC(F)(F)CN)cc1F)C(C1CC1)C1CC1` [Compound 100, N-((S)-1-((4-((S)-1-((3-amino-2,2-difluoropropyl)amino)-1-oxopropan-2-yl)-2-fluorophenyl)amino)-3,3-dicyclopropyl-1-oxopropan-2-yl)-1-isopropyl-1H-pyrazole-5-carboxamide], greater than 1000 nM; that for `CC(C)n1nccc1C(=O)N[C@H](C(=O)Nc1ccc([C@H](C)C(=O)N2CCNCC2C(F)(F)F)cc1F)C(C1CC1)C1CC1` (stereo partly drawn) [Compound 101, N-((2S)-1,1-dicyclopropyl-3-((2-fluoro-4-((2S)-1-oxo-1-(2-(trifluoromethyl)piperazin-1-yl)propan-2-yl)phenyl)amino)-3-oxopropan-2-yl)-1-isopropyl-1 H-pyrazole-5-carboxamide], greater than 1000 nM.
